Measurements as given in patent EP4620956A1, “PARP1 INHIBITORS” (Zhejiang Yangli Pharmaceutical Technology Co., Ltd., priority 2022, dated 2024).

Columns and labels:
DLD-1 BRCA2^-/- = assay: Anti-proliferative activity (CellTiter-Glo, 7 days), DLD-1 BRCA2-/-; format: cell-based, human
MDA-MB-231 = assay: Anti-proliferative activity (CellTiter-Glo, 7 days), MDA-MB-231; format: cell-based, human
MDA-MB-436 = assay: Anti-proliferative activity (CellTiter-Glo, 7 days), MDA-MB-436; format: cell-based, human
PARP6 = target: T1, PARP6 (Homo sapiens, UniProt Q2NL67); assay: Inhibition of PARP6 enzyme activity (chemiluminescence); format: biochemical
T1 construct: purchased BPS 80506

[1] = system: MDA-MB-436 xenograft tumour; assay: Anti-tumour effect in MDA-MB-436 subcutaneous xenograft tumour mouse model; format: in vivo; conditions: same dose, MDA-MB-436 xenograft mice
Experimental: Example 4 was further verified in vivo. A subcutaneous xenograft tumour mouse model of the BRCA1-mutated MDA-MB-436 cell line was selected. Human breast cancer MDA-MB-436 cells (ATCC, HTB-130) were cultured in vitro in a monolayer, with the culture conditions of L-15 medium supplemented with 10% foetal bovine serum, 1% penicillin-streptomycin solution, and 0.01 mg/mL bovine insulin, and cultured at 37°C in a CO2-free incubator. The cells were routinely digested and passaged twice a week using trypsin-EDTA. When the cell confluency reached 80%-90%, the cells were harvested and counted, and 0.2 mL of 1 × 10^7 MDA-MB-436 cells were subcutaneously inoculated on the right back of each mouse (PBS : Matrigel = 1 : 1). When the mean tumour volume reached 152 mm^3, the mice were grouped for drug administration. The day of drug administration was set as Day 0. The tumour volume and the body weight of the mice were monitored twice a week, and the drug treatment lasted for 28 days.
The diameter of the tumour was measured with a vernier calliper. The tumour volume is calculated according to the following equation: V = 0.5a × b^2, where a and b represent the long and short diameters of the tumour, respectively. The tumour inhibition effect of the compound was evaluated by relative tumour shrinkage rate Reg%. Reg% reflects the rate of tumour volume reduction after treatment. Reg% = (V0-Vt)/V0×100%, where V0 is the tumour volume measured at the time of grouping for drug administration (i.e., d0), and Vt is the tumour volume measured at a certain time point.
The criteria for compound response in the mouse model were adapted from mRECIST (Modified Response Evaluation Criteria in Solid Tumours) (Gao et al, 2015), and are specifically defined as follows: [formula] • PR (Partial Response): BestResponse < −50% and BestAvgResponse < −20%; [formula] • SD (Stable Disease): BestResponse < 35% and BestAvgResponse < 30%; [formula] • PD (Progressive Disease): other cases; • ORR% is the sum of the proportions of Complete Response (CR) and Partial Response (PR).
Statistical analysis was performed using Prism software, including the mean value (Mean) and standard error of the mean (SEM) of the tumour volume at each time point for each group. For the statistical analysis of TV, the original TV data from each measurement were used to compare the differences between groups. Two-way ANOVA was applied to include the two factors, i.e., drug administration and time for analysis, followed by the Tukey's multiple comparisons test, wherein p < 0.05 was considered statistically significant.

A549 WT = assay: Cellular PARylation inhibition, high-content imaging, A549 WT; format: cell-based; conditions: Homo sapiens, PARylation at the cellular level
Experimental: The inhibitory effect of the compounds on PARP1/PARP2 enzyme activity at the cellular level was detected using high-content imaging. A549 WT, PARP1-KO and PARP2-KO cell lines were established in-house, and the cells were revived. After the cells were stable, a sufficient number of cells were collected and 100 µL of the cell suspension was seeded into a 96-well plate. The next day, the example compounds with serially diluted concentrations were added. […] The plate was incubated for 1.5 hours (A549 WT and PARP2-KO cell lines) or 2 hours (PARP1-KO cell line). After removing the supernatant, 0.4 mM H2O2 was added and incubation was carried out for 10 minutes (A549 WT and PARP2-KO cell lines) or 1.5 mM H2O2 was added and incubation was carried out for 15 minutes (PARP1-KO cell line) to induce extensive cellular DNA damage. After removing the supernatant, the cells were fixed with 4% paraformaldehyde for 20 minutes, followed by treatment with 0.5% Triton X-100 for 20 minutes to increase the permeability of the cell membrane. After that, the cells were incubated with 3% BSA for 1 hour to prevent non-specific binding. […] The cell nuclei were stained for 30 minutes by adding 50 µL DAPI (invitrogen, R37606). After washing twice with PBS, images were acquired on OPERETTA CLS™ (PE) by scanning the cells under a 20x water objective lens in non-confocal mode, with 5 fields of view captured per well. […] The inhibition rate was calculated using the fluorescence values from the Max and Min wells, and the dose-response curve was fitted using the analysis software GraphPad Prism 5 to obtain the IC50 value of each compound for the enzyme activity.

PARP5a = target: T2, PARP5a (Homo sapiens, UniProt O95271); assay: Inhibition of PARP5a enzyme activity (chemiluminescence); format: biochemical
T2 construct: purchased BPS 80504

PARP2 = target: T3, PARP2 (Homo sapiens, UniProt Q9UGN5); assay: DNA trapping capability of PARP2 (HTRF); format: biochemical
T3 construct: purchased BPS 80502

DLD-1 WT = assay: Anti-proliferative activity (CellTiter-Glo, 7 days), DLD-1 WT; format: cell-based, human
Experimental: The anti-proliferation experiment of the compounds on tumour cells adopted the most widely used ATP concentration-based detection method at present. MDA-MB-231 and MDA-MB-436 cell lines were obtained from ATCC, DLD-1 human colourectal adenocarcinoma epithelial cells and DLD-1 BRCA2^-/- cells were obtained from Horizon, and the cells were revived. After the cells were stable, the cells were collected. When the viable cell count exceeded 90%, 450-500 cells were seeded into a 384-well plate. The next day, the example compounds with serially diluted concentrations were added. Only buffer was added to the Max well, and 50 µM AZD2281 was added to the Min well. The plate was incubated for 7 days, and on the eighth day, CellTiter-Glo® reagent (Promega, G7573) was added. The plate was incubated at room temperature for 30 minutes, and the values were read on Envision (PE). The inhibition rate was calculated using the fluorescence values from the Max and Min wells, and the dose-response curve was fitted using the analysis software GraphPad Prism 5 to obtain the IC50 value of each compound for the enzyme activity.

[2] = ratio relative to the PARP1 enzyme activity

T1 sequence (Q2NL67 whole entry): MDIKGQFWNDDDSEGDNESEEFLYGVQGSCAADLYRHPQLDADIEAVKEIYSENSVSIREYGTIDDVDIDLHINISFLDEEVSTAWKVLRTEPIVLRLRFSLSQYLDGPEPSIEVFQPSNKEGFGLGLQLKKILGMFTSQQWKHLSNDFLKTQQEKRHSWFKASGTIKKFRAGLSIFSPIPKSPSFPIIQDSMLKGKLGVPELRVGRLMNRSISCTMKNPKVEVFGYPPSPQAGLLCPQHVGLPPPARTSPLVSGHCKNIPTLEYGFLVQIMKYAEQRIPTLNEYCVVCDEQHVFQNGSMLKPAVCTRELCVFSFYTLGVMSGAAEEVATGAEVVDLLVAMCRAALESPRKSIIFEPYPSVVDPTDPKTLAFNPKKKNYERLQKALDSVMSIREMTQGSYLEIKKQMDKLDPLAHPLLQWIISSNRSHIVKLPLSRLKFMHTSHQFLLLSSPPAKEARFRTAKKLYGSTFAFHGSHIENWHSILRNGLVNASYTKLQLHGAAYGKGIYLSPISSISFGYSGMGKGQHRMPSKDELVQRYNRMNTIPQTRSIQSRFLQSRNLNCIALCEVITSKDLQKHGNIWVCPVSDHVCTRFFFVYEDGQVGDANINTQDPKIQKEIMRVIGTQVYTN
T2 sequence (O95271 1001-1327): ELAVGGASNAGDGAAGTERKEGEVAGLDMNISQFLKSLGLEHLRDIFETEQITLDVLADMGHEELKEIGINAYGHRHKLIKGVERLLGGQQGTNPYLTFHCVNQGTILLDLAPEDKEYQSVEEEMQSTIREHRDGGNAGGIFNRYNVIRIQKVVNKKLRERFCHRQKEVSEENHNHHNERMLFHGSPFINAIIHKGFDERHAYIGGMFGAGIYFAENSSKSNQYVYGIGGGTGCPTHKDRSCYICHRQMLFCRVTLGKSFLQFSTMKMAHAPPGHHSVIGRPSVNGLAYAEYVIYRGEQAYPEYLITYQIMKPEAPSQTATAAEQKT
T3 sequence (Q9UGN5 whole entry): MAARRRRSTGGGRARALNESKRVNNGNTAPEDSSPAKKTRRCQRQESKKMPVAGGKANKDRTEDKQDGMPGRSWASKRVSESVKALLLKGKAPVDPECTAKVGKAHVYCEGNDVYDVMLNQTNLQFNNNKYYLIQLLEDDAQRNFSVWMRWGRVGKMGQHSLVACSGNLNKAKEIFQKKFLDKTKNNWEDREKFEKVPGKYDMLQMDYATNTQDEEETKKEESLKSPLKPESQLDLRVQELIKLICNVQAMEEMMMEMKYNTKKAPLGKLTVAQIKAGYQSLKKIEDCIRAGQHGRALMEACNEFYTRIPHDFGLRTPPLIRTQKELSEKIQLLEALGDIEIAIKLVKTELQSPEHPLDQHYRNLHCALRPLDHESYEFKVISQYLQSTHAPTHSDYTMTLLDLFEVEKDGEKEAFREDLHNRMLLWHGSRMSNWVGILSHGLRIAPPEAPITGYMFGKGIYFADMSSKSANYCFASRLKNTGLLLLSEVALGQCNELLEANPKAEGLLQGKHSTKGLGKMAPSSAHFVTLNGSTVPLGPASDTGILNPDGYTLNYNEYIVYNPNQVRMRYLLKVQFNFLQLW

## [2H]C([2H])([2H])NC(=O)c1ccc(N2CCN(Cc3cnc4c(N)c(CC)c(=O)[nH]c4c3)CC2)c(F)n1 [Example 4, 5-(4-((8-Amino-7-ethyl-6-oxo-5,6-dihydro-1,5-naphthyridin-3-yl)methyl)piperazin-1-yl)-6-fluoro-N-(methyl-d3)picolinamide]
DLD-1 BRCA2^-/-; DLD-1 WT vs DLD-1 BRCA2^-/-
  BRCA2 mutation/WT selectivity fold: >2,178 fold
DLD-1 BRCA2^-/-; Homo sapiens, DLD-1, 168 h, BRCA2-mutated, 7 days
  IC50: 4.59 nM
MDA-MB-231; BRCA1-normal MDA-MB-231 cell line, 10 µM
  inhibition on cell proliferation at the highest concentration: no detectable inhibition
MDA-MB-231; Homo sapiens, MDA-MB-231, 168 h, BRCA1-normal, 7 days, read-out: MDA-MB-231 IC50
  IC50: > 10000 nM
MDA-MB-436; Homo sapiens, MDA-MB-436, 168 h, BRCA1-mutated, 7 days, read-out: MDA-MB-436 IC50
  IC50: 1.93 nM
MDA-MB-436; MDA-MB-231 vs MDA-MB-436
  BRCA1 mutation/WT selectivity fold: >5,181 fold
PARP6; enzyme activity
  IC50: > 10000 nM
PARP6; [2]
  PARP6 multiple vs PARP1: ∞
[1]; FIG. 3
  tumour regression: promoted tumour regression
[1]; treatment 28 days
  ORR: 60%
A549 WT
  IC50: 5.2 nM
PARP5a; enzyme activity
  IC50: 4060 nM
PARP5a; [2]
  PARP5a multiple vs PARP1: 8,467
PARP2
  EC50: 382 nM
DLD-1 WT; BRCA2-normal DLD-1 cell line, 10 µM
  inhibition on cell proliferation at the highest concentration: no detectable inhibition
DLD-1 WT; Homo sapiens, DLD-1, 168 h, BRCA2-normal, 7 days
  IC50: > 10000 nM
